This note sets out measurements from patent US20230312744A1, “Modulatory Substance of Tumor Immune Microenvironment, and Preventive, Diagnostic and/or Therapeutic Utilization of the Same” (The University Of Tokyo, priority 2020, published 2023).

In one assay the test system is IL-2ss-TCTP tumors. In words: Proliferation assay of subcutaneously transplanted IL-2ss-TCTP SL4 tumor in C57BL/6 mice. The class given is in vivo, mouse. The conditions noted are these: 50 mg/kg orally, FIG. 11(i). The protocol: In FIG. 11(a), PECs (2×10^5 cells) or SL4 cells (1×10^5 cells) were stimulated with recombinant TCTP for 2 hours. Thereafter, Cxcl1 mRNA was quantified by qRT-PCR (n=3). In FIG. 11(b), the Cxcl1 mRNA of TCTP WO SL4 cells and TCTP KO SL4 cells was quantified by RT-qPCR. n=3. In FIG. 11(c), SL4 cells (2×10^5 cells) were subcutaneously transplanted into C57BL/6 mice (n=3). On Day 21 after the transplantation, single cell suspensions were prepared from tumors. Thereafter, various immune cells (PMN-MDSCs, M-MDSCs, TAMS, DCs, T cells, B cells, and NK cells) were separated, and the Cxcl2 mRNA of individual cells was then quantified by qRT-PCR. In FIG. 11(d), PECs (2×10^5 cells) were stimulated with recombinant IL-la for 2 hours. Thereafter, Cxcl1 mRNA was quantified by qRT-PCR (n=3). […] HEK293T cells transiently expressing TLR2-YFP and Flag-TCTP were subjected to immunoprecipitation with an anti-GFP antibody, and thereafter, were analyzed with an anti-Flag antibody (upper view), and TLR2 and TCTP in the whole cell lysate were detected (lower view). […] The tumor volume was measured over time. In FIG. 11(i), IL-2ss-TCTP SL4 cells (2×10^5 cells) were subcutaneously transplanted into C57BL/6 mice, and the tumor volume was then measured over time. […]

In the next assay the target is T1, mouse TCTP (mouse, UniProt P63028 1-172).
T1 construct: also called TCTP in the whole cell lysate of TCTP WT SL4 cells; TCTP released from dead SL4 cells
T1 sequence (looked up): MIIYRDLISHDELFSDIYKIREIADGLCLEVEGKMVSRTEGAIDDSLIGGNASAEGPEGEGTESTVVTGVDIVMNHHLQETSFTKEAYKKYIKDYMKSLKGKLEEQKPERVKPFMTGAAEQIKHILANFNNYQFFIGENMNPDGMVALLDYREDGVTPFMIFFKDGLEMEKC
The assay is described as follows: immunoblotting of whole cell lysates of TCTP WT and TCTP KO SL4 cells.

As for `COc1cccc(C=O)c1O` [O -vanillin, O-vanillin], the “proliferation of IL-2ss-TCTP tumors” value in the assay on IL-2ss-TCTP tumors is on record as “suppressed”.

B1: 55F3 antibody (antibody, V domains shown)
VH: DVQLQESGPGLVKPSQSLSLTCTATGYSIASDYAWNWIRQFPGNKLEWMGYINYSGSTGYNPSLKSRISITRDTSKNQFFLQLNSVTTEDTATYYCARFEAGYWGQGTTLTVSS
VL: DIKMTQSPSSMSASLGERVTITCKASQDINRYLSWFQQKPGKSPKTLIYRANRLVDGVPSRFSGSGSGQDYSLTISSLEYGDMGIYYCLQYNEFPLTFGAGTKLELKR
notes: also called 55F3E5; 55F3E5 (55F3) monoclonal antibody
With B1, in the assay with mouse TCTP, the binding result is “binds”.
